Read-outs that look alike come from different tables or passages of the source.
What was measured:
[1] = Pharmacokinetics in mice after single oral dosing (blood/plasma and liver exposure); type: in vivo, mice (C57/bl6/J)
Experimental: The pharmacokinetics of the compounds was assessed in mice after single dosing and oral administrations. Blood/plasma and liver exposure was measured via LC-MS.
The study design was as follows:
Animals: C57/bl6/J (Janvier) males
Diet: standard rodent chow
Animal handling: animals were withdrawn from food at least 12 h before administration
Design: single dose oral administration, n=3 animals per group
Sacrifice: at stated time point (4, 12 or 24 h) after administration
Bioanalytics: LC-MS of liver and blood/plasma samples

[2] = target: T1, full length (FL) LXRβ (Homo sapiens, UniProt P55055, DUP175-175); assay: LXR Gal4 reporter transient transfection assay (FL-M2H Gal4β); type: cell-based; conditions: HEK293 cells, full length LXRβ; read-out: FL-M2H Gal4β (EC50 range)
T1 construct: the full length (FL) proteins of LXRα (amino acids 1-447); NP005684; NP009052; expressed in transfected cells; host or cells: HEK293
T1 sequence (P55055 with tags, fused parts or gaps DUP175-175): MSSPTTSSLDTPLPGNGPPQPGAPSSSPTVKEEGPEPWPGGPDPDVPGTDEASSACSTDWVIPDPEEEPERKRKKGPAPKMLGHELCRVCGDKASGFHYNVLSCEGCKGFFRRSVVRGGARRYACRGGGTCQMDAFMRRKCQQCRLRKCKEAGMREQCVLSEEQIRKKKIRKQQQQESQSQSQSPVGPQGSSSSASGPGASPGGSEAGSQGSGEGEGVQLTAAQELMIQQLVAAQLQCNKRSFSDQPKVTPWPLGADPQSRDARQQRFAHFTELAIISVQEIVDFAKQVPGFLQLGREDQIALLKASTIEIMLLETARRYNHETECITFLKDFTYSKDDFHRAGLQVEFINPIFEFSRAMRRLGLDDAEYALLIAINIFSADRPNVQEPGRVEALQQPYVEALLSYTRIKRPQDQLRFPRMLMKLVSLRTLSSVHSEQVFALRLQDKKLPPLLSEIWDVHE
Outline: (§1)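 Mammalian two-hybrid in HEK293 cells transiently transfected with NFkB-AD-fused FL or LBD LXR plus GAL4-BD-fused SRC1 or NCoR cofactor domains and GAL4-responsive firefly luciferase reporter, Renilla-normalized. Compound added 4 h post-transfection (≤0.2% DMSO), 16 h incubation, luminescence read.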

[3] = target: T2, ligand-binding domain (LBD) of LXRα (Homo sapiens, UniProt Q13133); assay: LXR Gal4 reporter transient transfection assay (LBD-M2H Gal4α); type: cell-based; conditions: HEK293 cells, LXRα LBD; read-out: LBD-M2H Gal4α (EC50 range)
T2 construct: expressed in transfected cells; host or cells: HEK293
T2 sequence (Q13133 155-447): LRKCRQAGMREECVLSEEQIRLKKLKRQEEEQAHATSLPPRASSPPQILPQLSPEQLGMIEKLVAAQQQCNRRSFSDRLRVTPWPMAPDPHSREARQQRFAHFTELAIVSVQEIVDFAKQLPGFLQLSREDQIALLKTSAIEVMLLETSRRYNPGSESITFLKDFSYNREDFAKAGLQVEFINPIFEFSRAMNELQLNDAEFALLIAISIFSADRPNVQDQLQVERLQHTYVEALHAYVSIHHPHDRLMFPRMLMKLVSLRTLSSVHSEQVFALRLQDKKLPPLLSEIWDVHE
Experimental: The tested compounds were usually dissolved, tested and stored as 20 mM stock solutions in DMSO. Since sulfonyl acetic acid derivatives tend to decarboxylate under these conditions, these stock solutions were prepared, tested and stored as 20 mM DMSO stock solutions containing 100 mM trifluoroacetic Acid (5 equivalents). Sulfonyl acetic acid derivatives are shelf stable as solid at rt for long time as reported by Griesbrecht et al. (Synlett 2010:374) or Faucher et al. (J. Med. Chem. 2004; 47:18).
LXR Gal4 Reporter Transient Transfection Assays
LXRα and LXRβ activity status was determined via detection of interaction with coactivator and corepressor proteins in mammalian two-hybrid experiments (M2H). For this, via transient transfection the full length (FL) proteins of LXRα (amino acids 1-447; NP005684; SEQ ID NO:1) or LXRβ-(amino acids 1-461; NP009052; SEQ ID NO:2) or the ligand-binding domains (LBD) of LXRα (amino acids 155-447 SEQ ID NO:3) or LXRβ (amino acids 156-461; SEQ ID NO:4) were expressed from pCMV-AD (Stratagene) as fusions to the transcriptional activation domain of NFkB. As cofactors, domains of either the steroid receptor coactivator 1 (SRC1; amino acids 552-887; SEQ ID NO:5) or of the corepressor NCoR (amino acids 1906-2312; NP006302; SEQ ID NO:6) were expressed as fusions to the DNA binding domain of the yeast transcription factor GAL4 (from pCMV-BD; Stratagene). Interaction was monitored via activation of a coexpressed Firefly Luciferase Reporter gene under control of a promoter containing repetitive GAL4 response elements (vector pFRLuc; Stratagene). Transfection efficiency was controlled via cotransfection of constitutively active pRL-CMV Renila reniformis luciferase reporter (Promega). HEK293 cells were grown in minimum essential medium (MEM) with 2 mM L-glutamine and Earle's balanced salt solution supplemented with 8.3% fetal bovine serum, 0.1 mM non-essential amino acids, 1 mM sodium pyruvate, at 37° C. in 5% CO2. 3.5×10^4 cells/well were plated in 96-well cell culture plates in growth medium supplemented with 8.3% fetal bovine serum for 16-20 h to ˜90% confluency. For transfection, medium was taken off and LXR and cofactor expressing plasmids as well as the reporter plasmids are added in 30 μL OPTIMEM/well including polyethylene-imine (PEI) as vehicle. Typical amounts of plasmids transfected/well: pCMV-AD-LXR (5 ng), pCMV-BD-cofactor (5 ng), pFR-Luc (100 ng), pRL-CMV (0.5 ng). Compound stocks were prepared in DMSO, prediluted in MEM to a total volume of 120 μL, and added 4 h after addition of the transfection mixture (final vehicle concentration not exceeding 0.2%). Cells were incubated for additional 16 h, lysed for 10 min in 1× Passive Lysis Buffer (Promega) and Firefly and Renilla luciferase activities were measured sequentially in the same cell extract using buffers containing D-luciferine and coelenterazine, respectively. Measurements of luminescence were done in a BMG-luminometer.

[4] = target: T3, ligand-binding domain (LBD) of LXRβ (Homo sapiens, UniProt P55055, DUP175-175); assay: LXR Gal4 reporter transient transfection assay (LBD-M2H Gal4β); type: cell-based; conditions: HEK293 cells, LXRβ LBD; read-out: LBD-M2H Gal4β (EC50 range)
T3 construct: LXRβ (amino acids 156-461); expressed in transfected cells; host or cells: HEK293
T3 sequence (P55055 with tags, fused parts or gaps DUP175-175 limits assumed): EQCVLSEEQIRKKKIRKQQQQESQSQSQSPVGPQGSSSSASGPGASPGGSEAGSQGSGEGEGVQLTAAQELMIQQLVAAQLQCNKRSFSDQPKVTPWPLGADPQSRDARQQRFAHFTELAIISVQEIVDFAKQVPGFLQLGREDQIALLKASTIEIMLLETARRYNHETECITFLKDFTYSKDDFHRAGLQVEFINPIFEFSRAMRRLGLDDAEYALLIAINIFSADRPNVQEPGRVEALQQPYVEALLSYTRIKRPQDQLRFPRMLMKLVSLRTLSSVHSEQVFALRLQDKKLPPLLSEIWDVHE
Outline: as §1

[5] = target: T4, full length (FL) LXRα (Homo sapiens, UniProt Q13133); assay: LXR Gal4 reporter transient transfection assay (FL-M2H Gal4α); type: cell-based; conditions: HEK293 cells, full length LXRα; read-out: FL-M2H Gal4α (EC50 range)
T4 construct: the full length (FL) proteins of LXRα (amino acids 1-447); NP005684; expressed in transfected cells; host or cells: HEK293
T4 sequence (Q13133 1-447): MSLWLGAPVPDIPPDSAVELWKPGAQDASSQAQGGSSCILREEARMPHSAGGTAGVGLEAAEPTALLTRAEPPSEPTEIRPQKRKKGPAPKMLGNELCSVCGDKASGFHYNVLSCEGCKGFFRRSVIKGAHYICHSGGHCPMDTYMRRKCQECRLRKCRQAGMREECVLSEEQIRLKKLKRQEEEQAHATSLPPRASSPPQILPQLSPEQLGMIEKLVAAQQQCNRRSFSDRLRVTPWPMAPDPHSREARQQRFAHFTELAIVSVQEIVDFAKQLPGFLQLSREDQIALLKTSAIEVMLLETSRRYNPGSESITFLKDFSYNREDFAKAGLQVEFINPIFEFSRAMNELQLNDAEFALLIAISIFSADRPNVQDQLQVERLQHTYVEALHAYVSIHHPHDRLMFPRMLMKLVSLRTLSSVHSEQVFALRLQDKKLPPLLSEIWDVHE
Outline: as §1

[6] = target: T5, LXRβ ligand-binding domain (Homo sapiens, UniProt P55055, DUP175-175); assay: TR-FRETβ activity assay (NCoA3 coactivator peptide recruitment); type: biochemical; conditions: TR-FRET, 1 μM 24(S)-25-epoxycholesterol prestimulation; read-out: FRETβ (EC50 range)
T5 construct: amino acids 156-461; NP009052; made in house; host or cells: E. coli
T5 sequence (P55055 with tags, fused parts or gaps DUP175-175 limits assumed): T3 sequence (P55055 with tags, fused parts or gaps DUP175-175 limits assumed)
Outline: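 GST-tagged human LXRβ LBD (aa 156-461, E. coli) at 76 nM with 400 nM biotinylated NCoA3 peptide in Tris/HCl pH 6.8, 240 mM KCl, BSA, 0.002% Triton-X-100, plus 1 μM 24(S)-25-epoxycholesterol as prestimulating agonist. Compounds at 50 μM down to 0.002 μM, 1 h at 4 °C. Coactivator recruitment by TR-FRET (Tb cryptate/XL665, 615/665 nm), triplicates.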

[7] = human liver microsomal assay; cited from earlier work
[8] = rat liver microsomal assay; cited from earlier work
[9] = 20 mg/kg single oral dose, time point 4 h

| SMILES | blood/plasma exposure [1, 9] | liver exposure [1, 9] | liver/blood ratio [1, 9] | EC50 [2] [nM] | EC50 [3] [nM] | EC50 [4] [nM] | EC50 [5] [nM] | EC50 [6] [nM] | blood/plasma exposure (below LLOQ, LLOQ given) [1, 9] | liver exposure (below LLOQ, LLOQ given) [1, 9] | oral bioavailability (in words) ([1]; oral administration) | clearance (Clint) [7] [mL/min/mg protein] | clearance (Clint) [8] [mL/min/mg protein] |
| --- | --- | --- | --- | --- | --- | --- | --- | --- | --- | --- | --- | --- | --- |
| N#Cc1sccc1-c1c(-c2cccc(C3CC3C(=O)O)c2)n(S(=O)(=O)c2ccc(Cl)cc2)c2ccc(F)cc12 (centres unmarked) [3/24] | D (D: <100 nM) | C (C: 1 μM to ≤3 μM) | D (D: >30) | < 100 | < 100 | < 100 | < 100 |  |  |  |  |  |  |
| N#Cc1sccc1-c1c(-c2cccc(C3CC3C(=O)O)c2)n(S(=O)(=O)c2ccc(Cl)cc2)c2ccccc12 (centres unmarked) [30/4] | C (C: 100 nM to <300 nM) | C (C: 1 μM to ≤3 μM) | C (C: 10 to ≤30) |  | 100 to 1000 | < 100 |  | 1000 to 10000 |  |  |  |  |  |
| N#Cc1sccc1-c1c(-c2cccc(N3CC(C(=O)O)C3)c2)n(S(=O)(=O)c2ccc(Cl)cc2)c2ccccc12 [30/7] | D (D: <100 nM) | B (B: 300 nM to ≤1 μM) | D (D: >30) |  | < 100 | < 100 |  | 100 to 1000 |  |  |  |  |  |
| Cc1ccc(S(=O)(=O)n2c(-c3cccc(-c4ccc(CN5CCN(C)CC5)cc4)c3)c(-c3ccsc3C#N)c3cc(F)ccc32)cc1 [Example 8, 3-(5-Fluoro-2-(4′-((4-methylpiperazin-1-yl)methyl)-[1,1′-biphenyl]-3-yl)-1-tosyl-1H-indol-3-yl)thiophene-2-carbonitrile] | B (B: 300 nM to ≤1 μM) | D (D: >3 μM) | B (B: 3 to ≤10) | < 100 |  |  |  | 100 to 1000 |  |  |  |  |  |
| Cc1cc(C)c(S(=O)(=O)N(Cc2ccc(-c3cccc(S(C)(=O)=O)c3)cc2)Cc2ccc(C(F)(F)F)o2)c(C)c1 [GSK2033, reference compound] |  |  |  |  |  |  |  |  | (14.4 ng/mL) | (9.6 ng/mL) | not orally bioavailable | > 1.0 | > 1.0 |

Reference: patent US11618747B2, “LXR modulators with bicyclic core moiety” (OrsoBio, Inc., priority 2018, dated 2023)
